Data set [1] can be described thus: Lipophilicity, log D of the compound at pH 7.4. Conditions: buffer.
The nature of data set [2]: Clearance in human hepatic microsomes assessed per mg protein at 1 uM after 20 mins by HPLC analysis. Conditions: liver microsomes, read-out: CLH. It counts as ADME, Microsome. For orientation: Liver microsomes are a subcellular fraction often used to study metabolism.
For data set [3], the target named is Acetyl-CoA carboxylase 2 (Homo sapiens, UniProt O00763). Briefly: Inhibition of human ACC2 using acetyl-coA as substrate incubated for 60 mins prior to substrate addition measured after 20 mins by malachite green assay.
Acetyl-CoA carboxylase 2, sequence (O00763 whole entry): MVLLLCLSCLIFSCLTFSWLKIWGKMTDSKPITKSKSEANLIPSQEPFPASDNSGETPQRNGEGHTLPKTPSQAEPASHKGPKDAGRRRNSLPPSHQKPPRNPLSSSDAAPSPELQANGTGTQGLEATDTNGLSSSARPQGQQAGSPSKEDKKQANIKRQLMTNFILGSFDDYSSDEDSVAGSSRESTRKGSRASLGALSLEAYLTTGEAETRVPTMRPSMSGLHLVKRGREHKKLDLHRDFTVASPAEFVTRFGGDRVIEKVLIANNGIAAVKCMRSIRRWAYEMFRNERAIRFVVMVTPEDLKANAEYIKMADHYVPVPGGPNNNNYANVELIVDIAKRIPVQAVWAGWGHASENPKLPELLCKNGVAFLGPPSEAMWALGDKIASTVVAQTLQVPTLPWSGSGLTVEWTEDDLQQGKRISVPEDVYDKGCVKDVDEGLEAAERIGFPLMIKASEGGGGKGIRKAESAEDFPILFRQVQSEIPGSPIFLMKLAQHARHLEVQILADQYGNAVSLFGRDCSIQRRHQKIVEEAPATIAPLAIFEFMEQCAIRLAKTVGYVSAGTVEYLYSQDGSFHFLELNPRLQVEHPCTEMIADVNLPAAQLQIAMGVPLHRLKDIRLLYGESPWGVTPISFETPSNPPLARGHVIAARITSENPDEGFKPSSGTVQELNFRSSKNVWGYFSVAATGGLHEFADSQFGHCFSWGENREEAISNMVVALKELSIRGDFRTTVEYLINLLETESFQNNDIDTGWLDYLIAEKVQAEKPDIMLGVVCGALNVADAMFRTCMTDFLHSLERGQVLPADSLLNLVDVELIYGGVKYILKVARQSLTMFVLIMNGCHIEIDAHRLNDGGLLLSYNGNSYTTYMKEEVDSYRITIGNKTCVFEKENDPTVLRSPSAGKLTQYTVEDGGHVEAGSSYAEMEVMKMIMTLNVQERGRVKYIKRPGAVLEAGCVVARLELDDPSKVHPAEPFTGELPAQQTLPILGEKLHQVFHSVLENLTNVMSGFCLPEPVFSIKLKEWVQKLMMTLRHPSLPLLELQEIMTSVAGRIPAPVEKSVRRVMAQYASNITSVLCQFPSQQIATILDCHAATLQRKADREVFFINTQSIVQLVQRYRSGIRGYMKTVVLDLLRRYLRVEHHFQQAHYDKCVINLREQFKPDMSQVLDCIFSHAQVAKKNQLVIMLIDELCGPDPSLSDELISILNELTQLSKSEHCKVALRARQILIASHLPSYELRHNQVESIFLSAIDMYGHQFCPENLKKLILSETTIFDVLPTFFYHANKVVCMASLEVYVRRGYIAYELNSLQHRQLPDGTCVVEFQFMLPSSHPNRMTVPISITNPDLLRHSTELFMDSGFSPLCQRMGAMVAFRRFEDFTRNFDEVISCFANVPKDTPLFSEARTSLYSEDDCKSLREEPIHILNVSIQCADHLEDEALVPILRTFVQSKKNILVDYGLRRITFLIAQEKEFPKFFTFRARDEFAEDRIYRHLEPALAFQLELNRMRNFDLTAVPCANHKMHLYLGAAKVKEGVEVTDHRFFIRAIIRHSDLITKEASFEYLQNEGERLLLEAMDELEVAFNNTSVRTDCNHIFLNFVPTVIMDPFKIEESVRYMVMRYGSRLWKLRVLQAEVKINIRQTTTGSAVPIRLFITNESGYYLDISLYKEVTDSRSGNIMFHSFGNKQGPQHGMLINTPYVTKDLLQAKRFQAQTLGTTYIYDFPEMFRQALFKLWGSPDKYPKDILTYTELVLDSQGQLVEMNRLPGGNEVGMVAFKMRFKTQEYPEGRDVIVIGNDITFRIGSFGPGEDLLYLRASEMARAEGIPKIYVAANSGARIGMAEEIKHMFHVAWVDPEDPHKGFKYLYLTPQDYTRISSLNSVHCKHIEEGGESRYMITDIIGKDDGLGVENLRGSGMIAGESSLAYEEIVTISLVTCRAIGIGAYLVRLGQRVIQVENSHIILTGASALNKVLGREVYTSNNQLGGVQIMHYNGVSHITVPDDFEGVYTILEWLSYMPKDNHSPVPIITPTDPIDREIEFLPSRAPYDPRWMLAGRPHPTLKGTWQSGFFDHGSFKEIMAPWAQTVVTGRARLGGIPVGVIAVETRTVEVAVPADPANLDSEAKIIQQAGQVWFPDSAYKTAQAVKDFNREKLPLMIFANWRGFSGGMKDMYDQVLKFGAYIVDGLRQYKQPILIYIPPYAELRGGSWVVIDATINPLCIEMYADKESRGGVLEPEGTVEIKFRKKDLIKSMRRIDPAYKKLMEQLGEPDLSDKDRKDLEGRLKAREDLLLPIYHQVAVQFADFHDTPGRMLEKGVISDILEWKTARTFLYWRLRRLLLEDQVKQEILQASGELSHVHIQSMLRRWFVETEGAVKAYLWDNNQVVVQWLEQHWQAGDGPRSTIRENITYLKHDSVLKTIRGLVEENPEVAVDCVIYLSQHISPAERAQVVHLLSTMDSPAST
Data set [4] concerns the target Acetyl-CoA carboxylase 1 (Homo sapiens, UniProt Q13085). The experiment in a line: Inhibition of human ACC1 using acetyl-coA as substrate incubated for 60 mins prior to substrate addition measured after 20 mins by malachite green assay.
Data set [5] is described as follows: Tmax in Crl:CD(SD)(IGS) rat at 3 mg/kg, po. The class given is ADME, organism-based. Further details: dose 3 mg/kg, route oral. Conditions: in vivo.
Data set [6] can be described thus: Total clearance in Crl:CD(SD)(IGS) rat at 1 mg/kg, iv. Also on record: dose 1 mg/kg, route intravenous. The class given is ADME, organism-based. The note with it: in vivo.
A short description of data set [7]: Mean residence time in Crl:CD(SD)(IGS) rat at 1 mg/kg, iv. The class given is ADME, organism-based. Also on record: dose 1 mg/kg, route intravenous. The note with it: in vivo.
Data set [8] is described as follows: Oral bioavailability in Crl:CD(SD)(IGS) rat at 3 mg/kg. It counts as ADME, organism-based. The note with it: in vivo.
The nature of data set [9]: Cmax in Crl:CD(SD)(IGS) rat at 3 mg/kg, po. The class given is ADME, organism-based. Also on record: dose 3 mg/kg, route oral. Conditions: in vivo.
The nature of data set [10]: AUC in Crl:CD(SD)(IGS) rat at 3 mg/kg, po. The class given is ADME, organism-based. Further details: dose 3 mg/kg, route oral. Conditions: plasma.
Data set [11] can be described thus: Volume of distribution at steady state in Crl:CD(SD)(IGS) rat at 1 mg/kg, iv. The note with it: in vivo, read-out: Vdss. The class given is ADME, organism-based. Also on record: dose 1 mg/kg, route intravenous.

A word on the logD: it is lipophilicity at a set pH, counting ionised and neutral species. Low readings indicate lower lipophilicity, high ones higher lipophilicity. In general, IC50 refers to the midpoint of a concentration-inhibition curve. A low value points to inhibition by little substance. What is called Tmax is the time from dosing to the highest level. Broadly, the clearance is the rate of elimination divided by the concentration. Low values mean inefficient removal, high ones efficient removal. One may read the MRT as the average time that molecules of a dose stay in the body. The bioavailability is dose-corrected exposure relative to a reference, in per cent. Lower therefore signals poor availability. For orientation: Cmax means the highest concentration seen after dosing. Usually AUC stands for concentration integrated over time. A high value points to high exposure.

In turn, `CCNC(=O)Nc1sc2nc(C)ccc2c1C(=O)N1CCC(N2CCCC3(C2)NC(=O)N(C(C)C)C3=O)CC1` (racemic) showed a logD in [1] of 2.39. Besides, the microsomal CLint at 1 µM in data set [2] came out at 26 µL/min/mg. For the same compound, the IC50 worked out at 17 nM in [3] and 150 nM in data set [4].
The matching figures for `CCNC(=O)Nc1sc2ccccc2c1C(=O)N1CCC(N2CCCC3(CCNC3=O)C2)CC1` (racemic): 2.06, 35 µL/min/mg, 79 nM and 650 nM.
The corresponding values for `CCN1C(=O)C2(CCCN(C3CCN(C(=O)c4c(NC(N)=O)sc5ccccc45)CC3)C2)N=C1C(C)C` (racemic) are 2.43, 230 µL/min/mg, 17 nM and 80 nM.
With `CCNC(=O)Nc1sc2nc(C)ccc2c1C(=O)N1CCC(N2CCCC3(C2)CC(C)(C)OC3=O)CC1` (racemic), in data set [1], the pH-dependent lipophilicity (logD) worked out at 2.49. The microsomal CLint at 1 µM in data set [2] is 79 µL/min/mg. Besides, the IC50 in data set [3] was found to be 14 nM; in data set [4] it was 78 nM.
The matching figures for `CNC(=O)Nc1sc2ccccc2c1C(=O)N1CCC(N2CCCC3(CCN(C(C)C)C3=O)C2)CC1` (racemic): 2.61, 66 µL/min/mg, 18 nM and 120 nM.
On to `CCNC(=O)Nc1sc2ccccc2c1C(=O)N1CCC(N2CCCC3(CC(=O)N(CC)C3=O)C2)CC1` (racemic), for which the microsomal CLint at 1 µM in data set [2] is 130 µL/min/mg. The IC50 in data set [3] was found to be 32 nM; in data set [4], 230 nM.
`CCNC(=O)Nc1sc2nc(C)ccc2c1C(=O)N1CCC(N2CCCC3(C2)OC(=O)N(C(C)C)C3=O)CC1` (stereo not given): the pH-dependent lipophilicity (logD) in [1] was found to be 2.39. In addition, in data set [2], the microsomal CLint at 1 µM was determined as 38 µL/min/mg. Further, the half-maximal inhibitory concentration (IC50) in data set [3] came to 15 nM; in [4] it was 160 nM.
The matching figures for `CCNC(=O)Nc1sc2ccccc2c1C(=O)N1CCC(N2CCCC3(C2)C(=O)N(CC)C(=O)N3C)CC1` (racemic): 2.79, 190 µL/min/mg, 51 nM and 360 nM.
The corresponding values for `CCNC(=O)Nc1sc2nc(C)ccc2c1C(=O)N1CCC(N2CCCC3(C2)N=C(C)N(C(C)C)C3=O)CC1` (stereo not given) are 2.27, 47 µL/min/mg, 15 nM and 76 nM.
Regarding `CCNC(=O)Nc1sc2cccnc2c1C(=O)N1CCC(N2CCCC3(C2)CC(C)(C)OC3=O)CC1` (racemic), the logD in data set [1] is 2.45. Besides, the microsomal CLint at 1 µM in [2] is 120 µL/min/mg. Also, the 50% inhibitory concentration (IC50) in data set [3] worked out at 27 nM; in [4], 150 nM.
The matching figures for `CCNC(=O)Nc1sc2ncccc2c1C(=O)N1CCC(N2CCCC3(C2)CC(C)(C)OC3=O)CC1` (racemic): 2.08, 110 µL/min/mg, 16 nM and 110 nM.
The matching figures for `CNC(=O)Nc1sc2nc(C)ccc2c1C(=O)N1CCC(N2CCC[C@@]3(C2)CC(C)(C)OC3=O)CC1`: 2.18, 90 µL/min/mg, 4.4 nM and 48 nM.
In data set [1], `CCNC(=O)Nc1sc2ccccc2c1C(=O)N1CCC(N2CCCC3(C2)CC(C)(C)OC3=O)CC1` (racemic) yielded a logD of 3.01. Also, in [2], the microsomal CLint at 1 µM came to 180 µL/min/mg.
For `CCNC(=O)Nc1sc2ccccc2c1C(=O)N1CCC(N2CCCC3(CCN(CC)C3=O)C2)CC1` (racemic), the logD in data set [1] stood at 2.62. The microsomal CLint at 1 µM in [2] amounted to 71 µL/min/mg. The IC50 in data set [3] was determined as 33 nM; in data set [4] it was 350 nM.
In [1], `CCNC(=O)Nc1sc2ccccc2c1C(=O)N1CCC(N2CCC[C@@]3(C2)CC(C)(C)OC3=O)CC1` showed a logD of 3.01. In addition, the microsomal CLint at 1 µM in data set [2] was 230 µL/min/mg.
Compound `CCNC(=O)Nc1sc2nc(C)ccc2c1C(=O)N1CCC(N2CCC[C@]3(CCN(C(C)C)C3=O)C2)CC1` displayed a logD in data set [1] of 2.43. The microsomal CLint at 1 µM in data set [2] worked out at 45 µL/min/mg. Further, the half-maximal inhibitory concentration (IC50) in data set [3] was found to be 9 nM; in data set [4] it was 93 nM.
`CCNC(=O)Nc1sc2ccccc2c1C(=O)N1CCC(N2CCCC3(C2)OC(=O)N(CC)C3=O)CC1` (racemic) returned a logD in data set [1] of 2.47. The microsomal CLint at 1 µM in [2] came to 98 µL/min/mg. Also, the results for the concentration for half-maximal inhibition (IC50) in data set [3] and in data set [4] were 40 nM and 190 nM, respectively.
With `CCNC(=O)Nc1sc2ccccc2c1C(=O)N1CCC(N2CCCC3(CCN(C)C3=O)C2)CC1` (racemic), the log distribution coefficient (logD) in data set [1] is 2.23. Further, the microsomal CLint at 1 µM in data set [2] was found to be 45 µL/min/mg. For the same compound, the IC50 came out at 64 nM in [3] and 510 nM in [4].
As to `CCN1C(=O)OC2(CCCN(C3CCN(C(=O)c4c(NC(N)=O)sc5ccccc45)CC3)C2)C1=O` (racemic), the logD in data set [1] is 1.85. In [2], the microsomal CLint at 1 µM is 41 µL/min/mg.
Regarding `CCNC(=O)Nc1sc2nccnc2c1C(=O)N1CCC(N2CCCC3(C2)CC(C)(C)OC3=O)CC1` (racemic), the pH-dependent lipophilicity (logD) in data set [1] was 2.32. Also, the microsomal CLint at 1 µM in data set [2] was 110 µL/min/mg. In addition, the IC50 came out at 37 nM in data set [3] and 150 nM in data set [4].
`CCN1C(=O)C2(CCCN(C3CCN(C(=O)c4c(NC(N)=O)sc5ccccc45)CC3)C2)N=C1C` (racemic) yielded a logD in data set [1] of 1.77. Also, the microsomal CLint at 1 µM in data set [2] amounted to 60 µL/min/mg. The 50% inhibitory concentration (IC50) worked out at 75 nM in data set [3] and 300 nM in data set [4].
Regarding `CNC(=O)Nc1sc2nc(C)ccc2c1C(=O)N1CCC(N2CCC[C@]3(CC(=O)N(C(C)C)C3=O)C2)CC1`, the pH-dependent lipophilicity (logD) in data set [1] came out at 2.51. Further, the microsomal CLint at 1 µM in data set [2] came to 33 µL/min/mg. For the same compound, the 50% inhibitory concentration (IC50) was determined as 8.5 nM in data set [3] and 160 nM in [4]. For the same compound, the time to peak (Tmax) in [5] came out at 30 min. In data set [6], this compound had a clearance of 15.8 mL/min/kg. The compound further registered a mean residence time (MRT) in data set [7] of 78 min. The compound further showed a bioavailability in data set [8] of 45%. Further, in [9], the peak concentration (Cmax) amounted to 440 ng/mL. The area under the curve (AUC) in data set [10] came out at 1400 ng·h/mL. For the same compound, the Vd in data set [11] was 1.3 L/kg.
In turn, `CCC1=NC2(CCCN(C3CCN(C(=O)c4c(NC(N)=O)sc5ccccc45)CC3)C2)C(=O)N1CC` (racemic) displayed a logD in data set [1] of 2.09. Besides, in data set [2], the microsomal CLint at 1 µM worked out at 150 µL/min/mg. Moreover, the IC50 is 43 nM in [3] and 410 nM in data set [4].
The compound `CCN1C(=O)CC2(CCCN(C3CCN(C(=O)c4c(NC(N)=O)sc5ccccc45)CC3)C2)C1=O` (stereo not given) displayed a logD in [1] of 2.2. Further, the microsomal CLint at 1 µM in data set [2] was determined as 64 µL/min/mg. In addition, the half-inhibitory concentration (IC50) in data set [3] is 23 nM; in [4], 350 nM.
On to `CCNC(=O)Nc1sc2ccccc2c1C(=O)N1CCC(N2CCCC3(C2)NC(=O)N(CC)C3=O)CC1` (racemic), for which the logD in data set [1] turned out to be 2.44. Besides, the microsomal CLint at 1 µM in [2] stood at 110 µL/min/mg. The IC50 in [3] came out at 22 nM; in data set [4], 280 nM.

The record behind these values is ChEMBL document CHEMBL2029217, “Design, synthesis, and structure-activity relationships of novel spiro-piperidines as acetyl-CoA carboxylase inhibitors” (Bioorg Med Chem Lett, 2012).
